Source: patent publication EP0275515B1, “Aqueous pharmaceutical composition” (DAIICHI PHARMACEUTICAL CO., LTD., priority 1986, dated 1988)

What was measured:
[1] = Storage stability of aqueous solution (residual concentration); format: physicochemical; details: 0.5 w/v% aqueous solution, pH range of 3 to 10, stored at 60°C for 1 or 2 weeks
[2] = Acute toxicity in mice (intravenous LD50); details: mouse, in vivo, read-out: acute toxicity (LD₅₀, intravenous)
Description: It is to be noted that the acute toxicity of the S-compound in mice (LD₅₀, intravenous) is 244 mg/kg.

In the case of `C[C@H]1COc2c(N3CCN(C)CC3)c(F)cc3c(=O)c(C(=O)O)cn1c23` [S-compound, S-(-)-9-fluoro-3-methyl-10-(4-methyl-1-piperazinyl)-7-oxo-2,3-dihydro-7H-pyrido[1,2,3-de][1,4]benzoxazine-6-carboxylic acid], the residual concentrations [1] is reported as “stably remained without decomposition” and the LD50 [2] is reported as 244 mg/kg.
